“And” between values parts separate entries of the source, which are not always exact repeats. Equal values may be shown once. Read-outs that look alike come from different tables or passages of the source. Blank lines part the entries; values can stand above or below the molecule they belong to.
What was measured:
[1] = Brain to plasma ratio, 4ET-01-021 at 3.0 mg/kg PO; assay type: in vivo, male CD-1 mouse; details: for concentration at 2 h: oral, 3 mg/kg
[2] = molecular target: T1, death-associated protein kinase-related apoptosis-inducing protein kinase 1 (DRAK1) (Homo sapiens, UniProt Q9UEE5); experiment: Off-target kinase screen DRAK1; assay type: biochemical; details: 1 μM test compound
T1 sequence (Q9UEE5 1-414): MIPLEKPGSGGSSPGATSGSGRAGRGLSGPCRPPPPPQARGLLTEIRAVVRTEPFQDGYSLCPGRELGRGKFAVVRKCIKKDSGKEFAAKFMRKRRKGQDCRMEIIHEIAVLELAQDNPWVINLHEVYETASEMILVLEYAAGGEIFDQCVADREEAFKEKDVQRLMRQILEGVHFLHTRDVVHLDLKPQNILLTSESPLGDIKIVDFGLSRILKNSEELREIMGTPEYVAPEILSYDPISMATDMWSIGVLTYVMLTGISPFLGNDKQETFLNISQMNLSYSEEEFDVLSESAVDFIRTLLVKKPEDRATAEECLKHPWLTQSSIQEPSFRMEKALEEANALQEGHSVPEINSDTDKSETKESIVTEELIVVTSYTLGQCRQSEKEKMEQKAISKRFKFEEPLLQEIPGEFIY
From the text: (§1) These kinases were chosen because they are the only known off-target hit kinases for eFT508. These assays were done using recombinant human kinases (CLK4, DRAK1 and PKG2) in a substrate phosphorylation assay. % activity remaining after MNK inhibitor treatment is indicated in Table 12.

[3] = tested on: eIF4E phosphorylation at Serine 209 in the human osteosarcoma (U2OS) cell line; experiment: eIF4E phosphorylation in U2OS cells (fluorescent plate reader); assay type: cell-based; details: Homo sapiens, U2OS; eIF4E phosphorylation at Serine 209, 2 hours exposure
Protocol: The ability of MNK inhibitors described herein to inhibit eIF4E phosphorylation at Serine 209 in the human osteosarcoma (U2OS) cell line was tested by exposing the cells to compound for 2 hours and then measuring eIF4E phosphorylation with a phosphorylation-specific antibody in a fluorescent plate reader.

[4] = molecular target: T2, protein kinase G 2 (PKG2) (Homo sapiens, UniProt Q13237); experiment: Off-target kinase screen PKG2; assay type: biochemical; details: 1 μM test compound
T2 sequence (Q13237 1-762): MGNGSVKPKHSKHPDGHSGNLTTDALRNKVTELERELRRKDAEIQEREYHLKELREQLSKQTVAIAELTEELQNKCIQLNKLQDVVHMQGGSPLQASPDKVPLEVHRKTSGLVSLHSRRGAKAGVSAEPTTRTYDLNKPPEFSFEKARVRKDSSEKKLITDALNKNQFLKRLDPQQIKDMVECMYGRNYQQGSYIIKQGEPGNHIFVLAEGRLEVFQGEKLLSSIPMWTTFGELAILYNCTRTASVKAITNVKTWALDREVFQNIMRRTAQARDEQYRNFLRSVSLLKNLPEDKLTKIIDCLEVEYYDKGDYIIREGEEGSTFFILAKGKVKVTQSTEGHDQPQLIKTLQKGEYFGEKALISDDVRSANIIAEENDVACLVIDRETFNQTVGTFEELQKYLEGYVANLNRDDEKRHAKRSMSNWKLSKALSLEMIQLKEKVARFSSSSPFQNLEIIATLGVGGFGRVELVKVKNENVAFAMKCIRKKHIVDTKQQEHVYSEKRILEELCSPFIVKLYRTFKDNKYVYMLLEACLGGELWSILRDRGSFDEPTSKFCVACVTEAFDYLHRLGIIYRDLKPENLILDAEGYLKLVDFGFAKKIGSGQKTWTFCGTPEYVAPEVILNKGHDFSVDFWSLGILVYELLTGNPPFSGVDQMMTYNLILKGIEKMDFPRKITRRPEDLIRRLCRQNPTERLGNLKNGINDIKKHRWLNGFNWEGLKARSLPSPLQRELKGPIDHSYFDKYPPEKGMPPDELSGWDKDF
From the text: as §1

[5] = Pharmacokinetic study, 4ET-03-009 at 10 mg/kg oral; assay type: in vivo, CD-1 male mice; details: for AUCinf/D / Cmax/D: dose normalized; for concentration at 24 hours: read-out: Clast
Protocol: Compound 4ET-03-009 was dissolved in a 10% dimethylacetamide (DMA)/[…] solvent. CD-1 male mice were orally dosed with 10 mg/kg of compound 4ET-03-009 in 20 mL/kg of liquid. Plasma was collected at indicated timepoints and plasma concentration of compound 4ET-03-009 was measured using liquid chromatography-mass spectrometry/mass spectrometry (LC-MS/MS). Results are presented in FIG. 1 and Tables 3, 4, and 5.

[6] = male, CD-1, mouse, plasma, po, 10 mg/kg, Mean (n = 3)
[7] = male, CD-1, mouse, plasma, po, 10 mg/kg, individual animals

- Tissue Homogenate Concentration ([1]; 2 hr, Brain, individual): 17.6 ng/mL and 12.2 ng/mL
- Plasma Concentration ([1]; 2 hr, Plasma, individual): 462 ng/mL and 383 ng/mL
- Kp at 2 h ([1]; male, CD-1, mouse, 2 h post dosing, Brain, read-out: Mean tissue/plasma concentration ratio (B:P ratio)): 0.142
- concentration at 2 h ([1]; male, CD-1, mouse, brain homogenate, 2 h, Brain, read-out: Mean (brain homogenate)): 14.8 ng/mL
- concentration at 2 h ([1]; male, CD-1, mouse, brain homogenate, 2 hr, Brain, individual, read-out: Tissue Homogenate Concentration): 14.5 ng/mL
- concentration at 2 h ([1]; male, CD-1, mouse, brain, 2 h, Brain, read-out: Mean Tissue): 59.1 ng/g
- concentration at 2 h ([1]; male, CD-1, mouse, plasma, 2 h, Plasma, read-out: Mean (plasma)): 416 ng/mL
- concentration at 2 h ([1]; male, CD-1, mouse, plasma, 2 hr, Plasma, individual, read-out: Plasma Concentration): 404 ng/mL
Compound: CCC1=CC2(CCC1)NC(=O)c1c(C)cc(Nc3cc(N)ncn3)c(=O)n12 (stereo not shown) [Compound 4ET-01-021, 6′-((6-Aminopyrimidin-4-yl)amino)-3-ethyl-8′-methyl-2′H-spiro[cyclohexane-1,3′-imidazo[1,5-a]pyridin]-2-ene-1′,5′-dione]

- IC50 [3]: 1.7 nM
- remaining activity at 1 µM [4]: 99%
- Plasma Conc. (per mouse n = 3) ([5]; 0.083 hours): 85.3 ng/mL and 106 ng/mL
- Plasma Conc. (per mouse n = 3) ([5]; 0.25 hours): 147 ng/mL and 161 ng/mL
- Plasma Conc. (per mouse n = 3) ([5]; 0.5 hours): 270 ng/mL and 205 ng/mL
- Plasma Conc. (per mouse n = 3) ([5]; 1 hours): 318 ng/mL and 233 ng/mL
- Plasma Conc. (per mouse n = 3) ([5]; 2 hours): 271 ng/mL and 216 ng/mL
- Plasma Conc. (per mouse n = 3) ([5]; 4 hours): 169 ng/mL and 124 ng/mL
- Plasma Conc. (per mouse n = 3) ([5]; 6 hours): 80.2 ng/mL and 70.6 ng/mL
- Plasma Conc. (per mouse n = 3) ([5]; 8 hours): 62.9 ng/mL and 53.9 ng/mL
- Plasma Conc. (per mouse n = 3) ([5]; 24 hours): 2.28 ng/mL and 1.84 ng/mL
- Tlast ([5]; Mean (n = 3)): 24.0 h
- t1/2 ([5]; Mean (n = 3)): 3.46 h
- AUCinf/D ([5]; Mean (n = 3)): 162 kg·h/kL
- Cmax/D ([5]; Mean (n = 3)): 29.4 kg/kL
- AUC0-8 hours ([5]; individual animals): 1349 ng·h/mL and 1066 ng·h/mL
- AUCinf ([5]; individual animals): 1882 ng·h/mL and 1520 ng·h/mL
- AUClast ([5]; individual animals): 1870 ng·h/mL and 1511 ng·h/mL
- Clast ([5]; individual animals): 2.28 ng/mL and 1.84 ng/mL
- Cmax ([5]; individual animals): 318 ng/mL and 233 ng/mL
- MRTinf ([5]; individual animals): 4.64 h and 4.74 h
- Tlast ([5]; individual animals): 24.0 h
- t1/2 ([5]; individual animals): 3.44 h and 3.37 h
- Cmax/D ([5]; individual animals): 33.1 kg/kL and 31.8 kg/kL and 23.3 kg/kL
- Tmax ([5]; male, CD-1, mouse, plasma, individual animals): 1 h
- concentration at 0.083 h ([5]; male, CD-1, mouse, plasma, oral, 10 mg/kg, 0.083 hours, mean n = 3, read-out: Plasma Conc. Mean): 90.4 ng/mL
- concentration at 0.083 h ([5]; male, CD-1, mouse, plasma, oral, 10 mg/kg, 0.083 hours, read-out: Plasma Conc. (per mouse n = 3)): 79.8 ng/mL
- concentration at 0.25 h ([5]; male, CD-1, mouse, plasma, oral, 10 mg/kg, 0.25 hours, mean n = 3, read-out: Plasma Conc. Mean): 138 ng/mL
- concentration at 0.25 h ([5]; male, CD-1, mouse, plasma, oral, 10 mg/kg, 0.25 hours, read-out: Plasma Conc. (per mouse n = 3)): 106 ng/mL
- concentration at 0.5 hours ([5]; male, CD-1, mouse, plasma, oral, 10 mg/kg, 0.5 hours, mean n = 3, read-out: Plasma Conc. Mean): 226 ng/mL
- concentration at 0.5 h ([5]; male, CD-1, mouse, plasma, oral, 10 mg/kg, 0.5 hours, read-out: Plasma Conc. (per mouse n = 3)): 202 ng/mL
- concentration at 1 h ([5]; male, CD-1, mouse, plasma, oral, 10 mg/kg, 1 hours, mean n = 3, read-out: Plasma Conc. Mean): 294 ng/mL
- concentration at 1 h ([5]; male, CD-1, mouse, plasma, oral, 10 mg/kg, 1 hours, read-out: Plasma Conc. (per mouse n = 3)): 331 ng/mL
- concentration at 2 h ([5]; male, CD-1, mouse, plasma, oral, 10 mg/kg, 2 hours, mean n = 3, read-out: Plasma Conc. Mean): 255 ng/mL
- concentration at 2 h ([5]; male, CD-1, mouse, plasma, oral, 10 mg/kg, 2 hours, read-out: Plasma Conc. (per mouse n = 3)): 227 ng/mL
- concentration at 4 h ([5]; male, CD-1, mouse, plasma, oral, 10 mg/kg, 4 hours, mean n = 3, read-out: Plasma Conc. Mean): 132 ng/mL
- concentration at 4 h ([5]; male, CD-1, mouse, plasma, oral, 10 mg/kg, 4 hours, read-out: Plasma Conc. (per mouse n = 3)): 104 ng/mL
- concentration at 6 h ([5]; male, CD-1, mouse, plasma, oral, 10 mg/kg, 6 hours, mean n = 3, read-out: Plasma Conc. Mean): 66.7 ng/mL
- concentration at 6 h ([5]; male, CD-1, mouse, plasma, oral, 10 mg/kg, 6 hours, read-out: Plasma Conc. (per mouse n = 3)): 49.3 ng/mL
- concentration at 8 h ([5]; male, CD-1, mouse, plasma, oral, 10 mg/kg, 8 hours, mean n = 3, read-out: Plasma Conc. Mean): 52.5 ng/mL
- concentration at 8 h ([5]; male, CD-1, mouse, plasma, oral, 10 mg/kg, 8 hours, read-out: Plasma Conc. (per mouse n = 3)): 40.6 ng/mL
- concentration at 24 h ([5]; male, CD-1, mouse, plasma, oral, 10 mg/kg, 24 hours, mean n = 3, read-out: Plasma Conc. Mean): 1.92 ng/mL
- concentration at 24 h ([5]; male, CD-1, mouse, plasma, oral, 10 mg/kg, 24 hours, read-out: Plasma Conc. (per mouse n = 3)): 1.64 ng/mL
- concentration at 24 hours ([5]; male, CD-1, mouse, plasma, oral, 10 mg/kg, Mean (n = 3)): 1.92 ng/mL
- concentration at 24 hours ([5]; male, CD-1, mouse, plasma, oral, 10 mg/kg, individual animals): 1.64 ng/mL
- AUC(0-inf) [5, 6]: 1620 ng·h/mL
- MRT inf [5, 6]: 4.5 h
- half-life [5, 6]: 3.5 h
- AUC(0-t) ([5]; male, CD-1, mouse, plasma, po, 10 mg/kg, Mean (n = 3), read-out: AUC0-8 hours): 1180 ng·h/mL
- AUC(0-t) ([5]; male, CD-1, mouse, plasma, po, 10 mg/kg, Mean (n = 3), read-out: AUClast): 1610 ng·h/mL
- Cmax ([5]; male, CD-1, mouse, plasma, po, 10 mg/kg, Mean (n = 3), read-out: Cmax): 294 ng/mL
- AUC(0-inf) ([5]; male, CD-1, mouse, plasma, po, 10 mg/kg, for the study): 1620 ng·h/mL
- Cmax ([5]; male, CD-1, mouse, plasma, po, 10 mg/kg, for the study, read-out: Cmax): 716 nM
- AUC(0-inf) [5, 7]: 1460 ng·h/mL
- MRT inf [5, 7]: 4.12 h
- half-life [5, 7]: 3.58 h
- AUC(0-t) ([5]; male, CD-1, mouse, plasma, po, 10 mg/kg, individual animals, read-out: AUC0-8 hours): 1120 ng·h/mL
- AUC(0-t) ([5]; male, CD-1, mouse, plasma, po, 10 mg/kg, individual animals, read-out: AUClast): 1460 ng·h/mL
- Cmax ([5]; male, CD-1, mouse, plasma, po, 10 mg/kg, individual animals, read-out: Cmax): 331 ng/mL
Compound: Cc1cc(Nc2cc(NC(=O)C3CC3)ncn2)c(=O)n2c1C(=O)NC21CCOCC1 [Compound 4ET-03-009, N-(6-((8-Methyl-1,5-dioxo-1,2′,3′,5,5′,6′-hexahydro-2H-spiro[imidazo[1,5-a]pyridine-3,4′-pyran]-6-yl)amino)pyrimidin-4-yl)cyclopropanecarboxamide]
- remaining activity at 1 µM [2]: 16%
- abnormal clinical symptoms during the study [5]: No abnormal clinical symptoms were observed
- AUCinf/D ([5]; individual animals): 147 kg·h/kL and 188 kg·h/kL and 152 kg·h/kL

Reference: US20230286983A1 (4E Therapeutics, Inc., priority 2020, published 2023)
